Structures can show the parent of a compound that is named as a salt. Where two headings read alike, the source gives them in different places.
System: soybean (Var. Clark)
Assay: greenhouse growth regulator test on soybean (Table I)
Type: in vivo
Conditions: two weeks after application; for Injury (0-10): 0-10 scale, 0 = no effect, 10 = complete kill; for pest or weed control / pest or weed control at 2241.7 g/ha: Glycine max, foliar, 336 h, read-out: Height (% inhib.); for pest or weed control / pest or weed control at 2241.7 g/ha / Height (% inhib.): relative to control
From the text: Limited greenhouse experiments shown that there is promotion of lateral bud growth when compounds are applied at higher concentrations and earlier timings and an increase in soybean pod numbers at lower rates applied just prior to or at the flowering stage. […] Three parameters are reported in Table I to indicate the general spectrum of activity for each evaluated compound including the propensity for releasing lateral bud growth in soybeans. These are: (a) plant height measured as percent inhibition relative to the control; (b) the number of lateral buds per plant; and (c) phytotoxic injury on a scale of 0 to 10 (10 being maximum injury). Sampling compounds were evaluated in the greenhouse in a special growth regulator test. Four to five soybean seeds (Var. Clark) were planted in 4-inch pots with a humus-soil mixture. Two weeks after planting, two uniform plants were selected from each pot for treatment. The candidate compounds were dissolved in acetone-water (1:1), and applied as a foliar spray in a carrier volume of 50 gallons per acre, using a moving belt sprayer at a rate of 1/4, 1/2 and 2 lbs/acre. Six plants were used for each treatment. Two weeks after application, the number of laterals per plant, plant injury (0-10 scale; 0 = no effect, 10 = complete kill,) and the height of each plant were recorded. Untreated plants were used as controls.

Row | Compound | No. Laterals per plant (1/2 lbs/acre foliar spray) | Injury (0-10) (1/2 lbs/acre) | No. Laterals per plant (1/4 lbs/acre foliar spray) | Injury (0-10) (1/4 lbs/acre) | No. Laterals per plant (2 lbs/acre foliar spray) | Injury (0-10) (2 lbs/acre) | pest or weed control (1/2 lbs/acre foliar spray) [%] | pest or weed control (1/4 lbs/acre foliar spray) [%] | pest or weed control at 2241.7 g/ha (2 lbs/acre foliar spray) [%] | Height (% inhib.) (2 lbs/acre foliar spray) | Height (% inhib.) (1/2 lbs/acre foliar spray) | Height (% inhib.) (1/4 lbs/acre foliar spray) | Height (% inhib.) (1/2 lbs/acre foliar spray, HCl) | No. Laterals per plant (1/2 lbs/acre foliar spray, HCl) | Injury (0-10) (1/2 lbs/acre, HCl) | Height (% inhib.) (1/4 lbs/acre foliar spray, HCl) | No. Laterals per plant (1/4 lbs/acre foliar spray, HCl) | Injury (0-10) (1/4 lbs/acre, HCl) | Height (% inhib.) (2 lbs/acre foliar spray, HCl) | No. Laterals per plant (2 lbs/acre foliar spray, HCl)
1 | Clc1ccc(NCNc2ccc(Cl)c(Cl)c2)cc1Cl [II, n,n'-bis[3,4-dichlorophenyl]methanediamine] | 0 | 2 | 2 | 3 | 5 | 2 | 15 | 20 | 7 |  |  |  |  |  |  |  |  |  |  | 
2 | Brc1cc(Br)cc(NCNc2cc(Br)cc(Br)c2)c1 [III, n,n'-bis[3,5-dibromophenyl]methanediamine] | 0 | 1 | 0 | 1 | 3 | 1 | 2 | 0 | 0 |  |  |  |  |  |  |  |  |  |  | 
3 | Clc1ccc(N=Cc2ccccc2Cl)cc1Cl [IX, 3,4-dichloro-N-(2-chlorobenzylidene)aniline] | 4 | 0 | 0 | 0 | 4 | 2 | 23 | 0 | 12 |  |  |  |  |  |  |  |  |  |  | 
4 | Clc1cc(Cl)cc(N=Cc2ccccc2Cl)c1 [V, 3,5-dichloro-N-(2-chlorobenzylidine)aniline] | 3 | 0 | 2 | 0 | 5 | 0 | 8 | 1 | 13 |  |  |  |  |  |  |  |  |  |  | 
5 | Clc1cccc(C=Nc2cc(Cl)cc(Cl)c2)c1 [VI, 3,5-dichloro-N-(3-chlorobenzylidene)aniline] | 3 | 1 | 2 | 2 | 5 | 1 | 21 |  | 13 |  |  |  |  |  |  |  |  |  |  | 
6 | Clc1ccc(C=Nc2cc(Cl)cc(Cl)c2)cc1 [VII, 3,5-dichloro-N-(4-chlorobenzylidene)aniline] | 4 | 0 | 2 | 0 | 5 | 0 | 9 |  | 13 |  |  |  |  |  |  |  |  |  |  | 
7 | Clc1cc(Cl)cc(N=Cc2c(Cl)cccc2Cl)c1 [VIII, 3,5-dichloro-N-(2,6-dichlorobenzylidene)aniline] | 2 | 0 | 0 | 0 | 5 | 0 | 7 | 1 | 15 |  |  |  |  |  |  |  |  |  |  | 
8 | Clc1cccc(C=Nc2ccc(Cl)c(Cl)c2)c1 [X, 3,4-dichloro-N-(3-chlorobenzylidene)aniline] | 3 | 1 | 1 | 0 | 3 | 3 | 14 | 9 | 13 |  |  |  |  |  |  |  |  |  |  | 
9 | Clc1ccc(C=Nc2ccc(Cl)c(Cl)c2)cc1 [XI, 3,4-dichloro-N-(4-chlorobenzylidene)aniline] | 5 | 1 | 1 | 0 | 4 | 3 | 25 | 4 | 14 |  |  |  |  |  |  |  |  |  |  | 
10 | Clc1ccc(N=Cc2c(Cl)cccc2Cl)cc1Cl [XII, 3,4-dichloro-N-(2,6-dichlorobenzylidene)aniline] | 2 | 1 | 1 | 1 | 6 | 1 |  | 5 | 18 |  |  |  |  |  |  |  |  |  |  | 
11 | Clc1cc(Cl)cc(N=CNc2cc(Cl)cc(Cl)c2)c1 [XIV, N,N'-Bis[3,5-dichlorophenyl]formamidine] | 3 | 3 | 1 | 2 | 4 | 0 | 11 | 13 |  | 4 |  |  |  |  |  |  |  |  |  | 
12 | O=CNc1ccc(Cl)c(Cl)c1 [XIX, 3',4'-dichloroformanilide] | 0 | 0 | 5 | 1 | 4 | 3 | 0 | 2 | 13 |  |  |  |  |  |  |  |  |  |  | 
13 | Clc1ccc(N=CNc2ccc(Cl)c(Cl)c2)cc1Cl [XV, n,n'-bis[3,4-dichlorophenyl]formamidine] | 2 | 2 | 2 | 2 | 2 | 1 |  |  |  | 4 | 15 | 23 |  |  |  |  |  |  |  | 
14 | CCOC=Nc1cc(Cl)cc(Cl)c1 [XVI, Ethyl N-(3,5-dichlorophenyl)formimidate] | 4 | 1 | 2 | 1 | 5 | 2 | 2 | 0 | 22 |  |  |  |  |  |  |  |  |  |  | 
15 | CCOC=Nc1ccc(Cl)c(Cl)c1 [XVII, ethyl N-(3,4-dichlorophenyl)formimidate] | 0 | 1 | 2 | 2 | 4 | 6 |  | 24 | 34 |  |  |  |  |  |  |  |  |  |  | 
16 | Cl.Clc1cc(Cl)cc(N=CNc2cc(Cl)cc(Cl)c2)c1 [XX, N,N'-Bis[3,5-dichlorophenyl]formamidine hydrochloride] | 4 | 2 | 2 | 2 | 6 | 0 |  |  |  | 44 | 19 | 10 |  |  |  |  |  |  |  | 
17 | Clc1ccc(N=CNc2ccc(Cl)c(Cl)c2)cc1Cl [XXI, n,n'-bis[3,4-dichlorophenyl]formamidine HCl] |  |  |  |  |  |  |  |  |  |  |  |  | 4 | 4 | 1 | 0 | 1 | 0 | 20 | 5
18 | CCOC(CC)=Nc1cc(Cl)cc(Cl)c1 [XXII, Ethyl N-(3,5-dichlorophenyl)propionimidate] | 3 | 1 | 1 | 2 | 3 | 1 |  |  |  |  |  |  |  |  |  |  |  |  |  | 

Source: patent US4119667A, “Haloaniline derivatives as plant growth modifiers” (Rohm and Haas Company, priority 1974, dated 1978)
